According to ChEMBL document CHEMBL1143562 (J Med Chem, 2005):
Activity calls are given as the source filed them. The calls are words filed in the database; no cut-off is given here.

Key:
Mus musculus = assay: Percent protection of DBA/2 mice from audiogenically induced tonic seizures at a dose of 30 mg/kg of test compound; assay type: functional
[1] = Inhibition of [3H]leucine uptake into CHO cells by L-amino acid transporters; assay type: functional, cell-based; conditions: Cricetulus griseus
[2] = Inhibition of [3H]gabapentin binding to pig brain membranes; set-up: species or system Sus scrofa, Membrane
Rattus norvegicus [3] = assay: Inhibition of carrageenan-induced thermal hyperalgesia in rats 1 hr after administration of a 30 mg/kg dose of test compound; NA-not active; assay type: functional, organism-based; set-up: dose 30 mg/kg
Rattus norvegicus [4] = assay: The ability of 30 mg/kg oral dose of compound to restore punished drinking behavior in rats expressed as percent reference activity (PRA); NA-not active; assay type: functional, organism-based; set-up: dose 30 mg/kg
Rattus norvegicus [5] = assay: Inhibition of carrageenan-induced thermal hyperalgesia in rats 1 hr after administration of a 30 mg/kg dose of test compound; assay type: functional
Rattus norvegicus [6] = assay: The ability of 30 mg/kg oral dose of compound to restore punished drinking behavior in rats expressed as percent reference activity (PRA); assay type: functional

In the case of `CCCC[C@@H](CC(=O)O)[C@@H](C)N`, the Protection (Mus musculus) is reported as 0%, the IC50 [1] is reported as > 8300 µM and the IC50 [2] is reported as 1.03 µM. For the same compound, the CITH (Rattus norvegicus [3]) was “inactive” and the “WLC PRA” value (Rattus norvegicus [4]) was “inactive”.
`CCC(CC)CC(CN)CC(=O)O` (stereo not drawn) showed a Protection (Mus musculus) of 0%, an IC50 [1] of 142 µM and an IC50 [2] of 1.33 µM. The CITH (Rattus norvegicus [3]) was “inactive” and the “WLC PRA” value (Rattus norvegicus [4]) was “inactive”.
In the case of `CC(C)C[C@@H](CC(=O)O)[C@H](C)N`, the Protection (Mus musculus) is reported as 0%, the IC50 [1] is reported as > 10000 µM and the IC50 [2] is reported as 0.039 µM. For the same compound, the CITH (Rattus norvegicus [3]) was “inactive” and the “WLC PRA” value (Rattus norvegicus [4]) was “inactive”.
For `CCC[C@@H](CC(=O)O)[C@@H](C)N`, the Protection (Mus musculus) was 0%, the IC50 [1] was > 8300 µM and the IC50 [2] was 1.29 µM. For the same compound, the CITH (Rattus norvegicus [3]) was “inactive” and the “WLC PRA” value (Rattus norvegicus [4]) was “inactive”.
For `CCC(CC)C(CN)CC(=O)O` (stereo not drawn), the Protection (Mus musculus) was 20%, the IC50 [1] was 146 µM and the IC50 [2] was 0.203 µM. For the same compound, the CITH (Rattus norvegicus [3]) was “inactive” and the “WLC PRA” value (Rattus norvegicus [4]) was “inactive”.
Work on `NCC1(CC(=O)O)CCCCC1` [GABAPENTIN] yielded a Protection (Mus musculus) of 100%, an IC50 [1] of 30 µM and an IC50 [2] of 0.07 µM. The CITH (Rattus norvegicus [5]) was 48 and the “WLC PRA” value (Rattus norvegicus [6]) was 60.
`CC(C)[C@@H](C)[C@H](CN)CC(=O)O` showed a Protection (Mus musculus) of 100%, an IC50 [1] of 157 µM and an IC50 [2] of 0.021 µM. For the same compound, the CITH (Rattus norvegicus [5]) was 71 and the “WLC PRA” value (Rattus norvegicus [6]) was 152.
With `CC(C)[C@H](C)[C@H](CN)CC(=O)O` the Protection (Mus musculus) was 20%, the IC50 [1] was 28 µM and the CITH (Rattus norvegicus [3]) was “inactive”. The “WLC PRA” value (Rattus norvegicus [4]) was “inactive”.
With `CC(C)C[C@@H](CC(=O)O)[C@@H](C)N` the Protection (Mus musculus) was 0%, the IC50 [1] was > 100000 µM and the IC50 [2] was 0.48 µM. For the same compound, the CITH (Rattus norvegicus [3]) was “inactive” and the “WLC PRA” value (Rattus norvegicus [4]) was “inactive”.
With `CC(C)C[C@H](CN)CC(=O)O` [PREGABALIN] the Protection (Mus musculus) was 100%, the IC50 [1] was 158 µM and the CITH (Rattus norvegicus [5]) was 52. The “WLC PRA” value (Rattus norvegicus [6]) was 100.
For `CC(C)C[C@H](CN)[C@H](C)C(=O)O`, the Protection (Mus musculus) was 0%, the IC50 [1] was 117 µM and the IC50 [2] was > 10 µM. For the same compound, the “WLC PRA” value (Rattus norvegicus [4]) was “inactive”.
Compound `CCC(CN)(CC(=O)O)CC(C)C` (stereo not drawn) has a Protection (Mus musculus) of 20%, an IC50 [1] of 60 µM and an IC50 [2] of 8.56 µM. The “WLC PRA” value (Rattus norvegicus [4]) was “inactive”.
With `CC(C)CC(C)(CN)CC(=O)O` (stereo not drawn) the Protection (Mus musculus) was 0%, the IC50 [1] was 89 µM and the CITH (Rattus norvegicus [3]) was “inactive”. For the same compound, the “WLC PRA” value (Rattus norvegicus [4]) was “inactive”.
In the case of `CC(C)C[C@@H](CN)CC(=O)O`, the Protection (Mus musculus) is reported as 0%, the IC50 [1] is reported as 355 µM and the CITH (Rattus norvegicus [3]) is reported as “inactive”. For the same compound, the “WLC PRA” value (Rattus norvegicus [4]) was “inactive”.
With `CC(C)C[C@@H](CCN)C(=O)O` the Protection (Mus musculus) was 0%, the IC50 [1] was > 10000 µM and the IC50 [2] was 2.06 µM. The “WLC PRA” value (Rattus norvegicus [4]) was “inactive”.
